Measurements taken from publication PMC6825211 (Nature Communications, 2019).
Values joined by “and” are separate entries in the source; they are usually repeats but may differ in a detail not shown here. Equal values may be shown once.

Columns and labels:
[1] = target: T1, AXL (Homo sapiens, UniProt P30530); test: Nanosyn kinase profiling, mobility shift assay; format: biochemical; details: 12 points dose response
T1 construct: Nanosyn (assay service)
Method: (§1) inhibition was determined for each assay.

[2] = target: T2, CHEK2 (Homo sapiens, UniProt O96017); test: Nanosyn kinase profiling, mobility shift assay; format: biochemical; details: 12 points dose response
T2 construct: Nanosyn (assay service)
Method: as §1

[3] = target: T3, HIPK1 (Homo sapiens, UniProt Q86Z02); test: Nanosyn kinase profiling, mobility shift assay; format: biochemical; details: 12 points dose response
T3 construct: Nanosyn (assay service)
Method: as §1

[4] = target: MAP4K2 (Homo sapiens, UniProt Q12851); test: Nanosyn kinase profiling, mobility shift assay; format: biochemical; details: 12 points dose response
Method: as §1

[5] = target: T4, PAK5 (Homo sapiens, UniProt Q9P286); test: Nanosyn kinase profiling, mobility shift assay; format: biochemical; details: 12 points dose response
T4 construct: Nanosyn (assay service)
Method: as §1

[6] = target: T5, PAK6 (Homo sapiens, UniProt Q9NQU5); test: Nanosyn kinase profiling, mobility shift assay; format: biochemical; details: 12 points dose response
T5 construct: Nanosyn (assay service)
Method: as §1

[7] = target: T6, PHK1 (Homo sapiens, UniProt Q16816); test: Nanosyn kinase profiling, mobility shift assay; format: biochemical; details: 12 points dose response
T6 construct: Nanosyn (assay service)
Method: as §1

[8] = system: MLD–STZ C57BL/6J mice; test: MLD–STZ model: β-cell apoptosis (TUNEL); format: in vivo, mouse
Method: C57Bl/6J mice were injected with 40 mg/kg streptozotocin or citrate buffer for 5 consecutive days. […] In d, basal glucose values were normalized to 100%. e Insulin secretion measured from retro-orbital blood draw during an ipGTT measured before (0 min) and 15 min after glucose injection; data are expressed as the ratio of secreted insulin at 15 min/0 min (stimulatory index). f The ratio of secreted insulin and glucose is calculated at fed state. g–i Mice were killed at day 35. g β-cell mass (given as percentage of the whole pancreatic section from ten sections spanning the width of the pancreas) and quantitative analyses from triple staining for h TUNEL or i Ki67, insulin, and DAPI expressed as percentage of TUNEL- or Ki67-positive β-cells ±SEM. An average number of 2331 (h), or 26369 (i) β-cells were counted. n = 9 mice/group for (a); n = 4–12 for (b); n = 5–15 for (c) and (d); n = 12–19 for (e); n = 8–14 for (f); n = 4–9 for (g); n = 4–11 for (h); and n = 6–11 mice/groupfor (i); all from three independent experiments).
Mouse pancreases were dissected and fixed in 4% formaldehyde at 4 °C for 12 h before embedding in paraffin[62]. Two-four-micrometer sections were deparaffinized, rehydrated, and incubated overnight at 4 °C with anti-PDX-1 (Abcam; #47267), anti-Glut2 (Chemicon; #07-1402), anti-Ki67 (Dako; #M7249), anti-phospho-Histone H3 (Ser10; Merck #06-570), and anti-NKX6.1 (DSHB, University of Iowa #F55A12[66]) in combination with TSA (Invitrogen #T30955), or for 2 h at room temperature with anti-insulin (Dako; A0546) antibodies (all at a dilution of 1:100, except anti-PDX-1, which was diluted 1:400) followed by fluorescein isothiocyanate (FITC)- or Cy3-conjugated secondary antibodies (Jackson ImmunoResearch Laboratories, West Grove, PA). Slides were mounted with Vectashield with 4′6-diamidino-2-phenylindole (DAPI) (Vector Labs). β-cell apoptosis was analyzed by the terminal deoxynucleotidyl transferase-mediated dUTP nick-end labeling (TUNEL) technique according to the manufacturer’s instructions (In Situ Cell Death Detection Kit, TMR red; Roche) and double stained for insulin. Fluorescence was analyzed by using a Nikon MEA53200 (Nikon GmbH, Dusseldorf, Germany) microscope, and images were acquired by using NIS-Elements software (Nikon).

[9] = clinical trials; cited from earlier work
[10] = Pharmacokinetic study, single i.p. dose; details: for AUC(0-inf): AUCINF
[11] = target: CAMK4 (Homo sapiens, UniProt Q16566); test: Nanosyn kinase profiling, mobility shift assay; details: read-out: % inhibition by neratinib
[12] = target: PYK2 (Homo sapiens, UniProt Q14289); test: Nanosyn kinase profiling, mobility shift assay; details: read-out: % inhibition by neratinib
[13] = target: SGK1 (Homo sapiens, UniProt O00141); test: Nanosyn kinase profiling, mobility shift assay; details: read-out: % inhibition by neratinib
[14] = 5 mg/kg IP, individual animals 1-3

T5 sequence (Q9NQU5 whole entry, species assumed): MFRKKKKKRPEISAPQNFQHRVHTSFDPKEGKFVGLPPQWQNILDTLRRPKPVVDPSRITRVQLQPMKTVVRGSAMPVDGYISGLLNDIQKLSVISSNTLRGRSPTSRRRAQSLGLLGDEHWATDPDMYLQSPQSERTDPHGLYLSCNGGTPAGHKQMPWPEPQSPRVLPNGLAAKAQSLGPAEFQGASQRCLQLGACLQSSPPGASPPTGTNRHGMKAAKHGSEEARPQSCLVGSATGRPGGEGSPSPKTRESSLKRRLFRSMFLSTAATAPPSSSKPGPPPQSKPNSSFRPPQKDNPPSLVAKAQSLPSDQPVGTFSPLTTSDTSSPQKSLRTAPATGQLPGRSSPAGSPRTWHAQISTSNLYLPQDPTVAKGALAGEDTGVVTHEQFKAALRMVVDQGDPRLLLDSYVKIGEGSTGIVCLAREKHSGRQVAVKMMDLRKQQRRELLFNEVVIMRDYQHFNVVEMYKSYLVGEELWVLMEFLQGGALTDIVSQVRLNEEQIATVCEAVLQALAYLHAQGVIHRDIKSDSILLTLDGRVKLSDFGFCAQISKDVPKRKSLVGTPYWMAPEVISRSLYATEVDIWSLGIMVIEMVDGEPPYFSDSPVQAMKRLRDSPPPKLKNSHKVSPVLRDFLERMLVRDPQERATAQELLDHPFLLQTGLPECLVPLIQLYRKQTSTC
T6 sequence (Q16816 whole entry): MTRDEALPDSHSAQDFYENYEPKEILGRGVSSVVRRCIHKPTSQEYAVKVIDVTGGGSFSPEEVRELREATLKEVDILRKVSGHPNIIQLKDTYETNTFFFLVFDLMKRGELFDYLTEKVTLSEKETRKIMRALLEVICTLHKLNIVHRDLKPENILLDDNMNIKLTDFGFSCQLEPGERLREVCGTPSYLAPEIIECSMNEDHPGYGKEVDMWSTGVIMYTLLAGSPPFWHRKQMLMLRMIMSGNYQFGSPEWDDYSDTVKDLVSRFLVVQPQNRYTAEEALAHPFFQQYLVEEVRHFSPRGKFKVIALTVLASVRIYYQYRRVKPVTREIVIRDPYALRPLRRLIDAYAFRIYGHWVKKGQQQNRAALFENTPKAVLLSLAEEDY
T4 sequence (Q9P286 whole entry): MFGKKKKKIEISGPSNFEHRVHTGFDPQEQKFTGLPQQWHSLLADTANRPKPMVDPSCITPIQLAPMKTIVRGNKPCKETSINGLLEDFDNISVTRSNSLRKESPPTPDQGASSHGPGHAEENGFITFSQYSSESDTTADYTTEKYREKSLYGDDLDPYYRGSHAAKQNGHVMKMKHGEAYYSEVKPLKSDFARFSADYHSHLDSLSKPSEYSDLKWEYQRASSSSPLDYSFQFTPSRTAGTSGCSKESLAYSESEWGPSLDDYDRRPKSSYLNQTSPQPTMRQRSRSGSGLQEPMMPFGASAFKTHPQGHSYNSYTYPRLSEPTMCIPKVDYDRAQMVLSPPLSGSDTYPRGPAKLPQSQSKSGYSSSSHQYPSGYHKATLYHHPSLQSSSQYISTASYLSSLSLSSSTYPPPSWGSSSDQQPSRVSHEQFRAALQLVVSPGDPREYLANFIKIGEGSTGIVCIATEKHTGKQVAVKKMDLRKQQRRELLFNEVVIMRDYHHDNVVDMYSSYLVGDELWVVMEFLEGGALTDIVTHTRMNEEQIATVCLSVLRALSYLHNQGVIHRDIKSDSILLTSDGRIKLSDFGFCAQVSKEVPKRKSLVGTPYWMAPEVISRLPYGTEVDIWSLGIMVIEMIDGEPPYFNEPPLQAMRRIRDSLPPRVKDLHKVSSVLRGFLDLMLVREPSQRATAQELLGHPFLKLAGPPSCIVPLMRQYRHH
Chain of PYK2 (Q14289 whole entry): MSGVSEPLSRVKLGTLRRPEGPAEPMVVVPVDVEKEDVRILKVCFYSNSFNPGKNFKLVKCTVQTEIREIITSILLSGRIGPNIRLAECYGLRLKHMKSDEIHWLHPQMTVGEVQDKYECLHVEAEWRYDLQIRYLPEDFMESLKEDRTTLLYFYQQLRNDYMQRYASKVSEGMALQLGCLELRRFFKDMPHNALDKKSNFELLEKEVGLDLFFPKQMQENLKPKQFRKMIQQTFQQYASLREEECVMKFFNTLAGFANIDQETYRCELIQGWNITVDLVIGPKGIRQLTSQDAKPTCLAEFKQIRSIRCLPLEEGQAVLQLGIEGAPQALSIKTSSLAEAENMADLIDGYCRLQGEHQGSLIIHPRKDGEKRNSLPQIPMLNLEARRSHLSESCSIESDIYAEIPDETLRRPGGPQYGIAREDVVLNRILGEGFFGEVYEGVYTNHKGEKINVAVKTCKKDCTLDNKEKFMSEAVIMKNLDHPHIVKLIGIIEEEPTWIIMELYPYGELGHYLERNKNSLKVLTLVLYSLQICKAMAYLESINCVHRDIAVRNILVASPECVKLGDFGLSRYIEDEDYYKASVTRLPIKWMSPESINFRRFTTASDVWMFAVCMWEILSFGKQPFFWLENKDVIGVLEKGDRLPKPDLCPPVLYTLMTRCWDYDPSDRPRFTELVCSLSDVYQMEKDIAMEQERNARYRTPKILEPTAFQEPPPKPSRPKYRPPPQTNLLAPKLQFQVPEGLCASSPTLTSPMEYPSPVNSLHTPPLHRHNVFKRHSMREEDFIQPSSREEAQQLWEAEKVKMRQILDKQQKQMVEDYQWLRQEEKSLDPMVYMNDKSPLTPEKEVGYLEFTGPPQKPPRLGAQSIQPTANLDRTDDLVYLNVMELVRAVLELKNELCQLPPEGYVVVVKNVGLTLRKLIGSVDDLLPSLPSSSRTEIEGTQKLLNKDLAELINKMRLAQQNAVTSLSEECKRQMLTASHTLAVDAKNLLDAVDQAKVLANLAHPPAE
Chain of CAMK4 (Q16566 whole entry): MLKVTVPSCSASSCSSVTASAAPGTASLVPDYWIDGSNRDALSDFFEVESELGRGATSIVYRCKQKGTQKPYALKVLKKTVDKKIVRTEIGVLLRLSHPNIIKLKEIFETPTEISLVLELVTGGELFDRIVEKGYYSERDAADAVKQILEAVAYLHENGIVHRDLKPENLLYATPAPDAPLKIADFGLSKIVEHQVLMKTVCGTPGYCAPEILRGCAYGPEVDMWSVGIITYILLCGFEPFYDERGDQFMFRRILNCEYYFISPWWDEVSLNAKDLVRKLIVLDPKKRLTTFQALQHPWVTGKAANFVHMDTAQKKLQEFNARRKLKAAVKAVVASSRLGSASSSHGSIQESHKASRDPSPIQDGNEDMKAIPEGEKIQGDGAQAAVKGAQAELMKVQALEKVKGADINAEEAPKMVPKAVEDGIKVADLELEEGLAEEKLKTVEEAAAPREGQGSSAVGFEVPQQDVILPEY
T3 sequence (Q86Z02 whole entry, species assumed): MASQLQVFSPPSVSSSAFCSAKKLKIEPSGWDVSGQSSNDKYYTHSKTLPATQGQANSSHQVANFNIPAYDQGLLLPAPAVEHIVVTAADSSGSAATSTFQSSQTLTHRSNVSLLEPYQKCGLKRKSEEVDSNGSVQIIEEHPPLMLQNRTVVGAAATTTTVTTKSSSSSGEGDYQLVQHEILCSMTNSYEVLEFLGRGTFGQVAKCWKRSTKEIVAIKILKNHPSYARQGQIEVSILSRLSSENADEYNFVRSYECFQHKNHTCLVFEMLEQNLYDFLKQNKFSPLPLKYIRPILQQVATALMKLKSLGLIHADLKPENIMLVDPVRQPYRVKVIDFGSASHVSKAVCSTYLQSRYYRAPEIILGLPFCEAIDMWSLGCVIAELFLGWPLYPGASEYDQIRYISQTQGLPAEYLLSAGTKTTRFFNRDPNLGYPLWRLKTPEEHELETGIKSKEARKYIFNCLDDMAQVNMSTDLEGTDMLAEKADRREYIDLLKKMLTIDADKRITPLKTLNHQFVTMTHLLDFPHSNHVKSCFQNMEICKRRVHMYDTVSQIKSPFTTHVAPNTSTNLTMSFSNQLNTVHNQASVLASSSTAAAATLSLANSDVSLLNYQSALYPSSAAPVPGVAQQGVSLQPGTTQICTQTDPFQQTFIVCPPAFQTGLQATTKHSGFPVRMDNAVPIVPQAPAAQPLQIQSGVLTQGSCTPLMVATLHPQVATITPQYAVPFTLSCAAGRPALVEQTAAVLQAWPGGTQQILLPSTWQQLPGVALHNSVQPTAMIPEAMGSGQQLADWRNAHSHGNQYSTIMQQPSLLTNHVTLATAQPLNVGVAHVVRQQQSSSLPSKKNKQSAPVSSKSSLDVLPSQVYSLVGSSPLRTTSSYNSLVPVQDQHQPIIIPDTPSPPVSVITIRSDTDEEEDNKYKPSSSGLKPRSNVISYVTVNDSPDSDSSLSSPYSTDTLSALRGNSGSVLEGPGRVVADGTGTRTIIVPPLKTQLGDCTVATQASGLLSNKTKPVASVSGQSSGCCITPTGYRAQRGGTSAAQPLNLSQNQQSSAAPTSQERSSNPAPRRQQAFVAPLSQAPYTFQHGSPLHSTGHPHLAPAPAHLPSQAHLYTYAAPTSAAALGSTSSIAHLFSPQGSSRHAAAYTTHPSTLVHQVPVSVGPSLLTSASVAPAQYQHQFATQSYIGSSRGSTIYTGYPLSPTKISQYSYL
Chain of SGK1 (O00141 whole entry): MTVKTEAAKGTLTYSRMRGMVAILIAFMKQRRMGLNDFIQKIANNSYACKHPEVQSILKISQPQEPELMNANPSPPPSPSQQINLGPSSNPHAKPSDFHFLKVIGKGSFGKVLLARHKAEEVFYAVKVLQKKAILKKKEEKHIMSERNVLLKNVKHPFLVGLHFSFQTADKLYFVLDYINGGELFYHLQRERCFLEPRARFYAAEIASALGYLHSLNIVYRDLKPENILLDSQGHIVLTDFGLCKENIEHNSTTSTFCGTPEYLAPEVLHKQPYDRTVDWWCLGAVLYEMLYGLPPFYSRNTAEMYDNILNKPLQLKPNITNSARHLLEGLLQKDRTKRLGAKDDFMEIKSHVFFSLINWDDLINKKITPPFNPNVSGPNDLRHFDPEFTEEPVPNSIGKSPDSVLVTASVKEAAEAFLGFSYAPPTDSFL

In the case of CCOc1cc2ncc(C#N)c(Nc3ccc(OCc4ccccn4)c(Cl)c3)c2cc1NC(=O)/C=C/CN(C)C [neratinib], the IC50 [1] is reported as 185 nM, the IC50 [2] is reported as 937 nM and the IC50 [3] is reported as over 20000 nM. The IC50 [4] was 102 nM, the IC50 [5] was over 20000 nM and the IC50 [6] was over 20000 nM. For the same compound, the IC50 [7] was 5850 nM, the TUNEL%/ mouse ([8]; NeraCtr group (no STZ), MEAN) was 0.08333% and the TUNEL%/ mouse ([8]; NeraCtr group (no STZ), individual mice) was 0.3333% and 0%. For the same compound, the TUNEL%/ mouse ([8]; NeraSTZ group, MEAN) was 0.24%, the TUNEL%/ mouse ([8]; NeraSTZ group, individual mice) was 0% and 0.2857% and 1.2987% and 0.3546% and 0.7008% and the β-cell apoptosis ([8]; STZ mice, day 35) was “reduced β-cell apoptosis”. For the same compound, the “most common neratinib-associated adverse events” value [9] was “diarrhea, vomiting, and nausea”, the Cl ([10]; 5 mg/kg IP, AVERAGE n=3) was 263.8 mL/min/kg and the VD ([10]; 5 mg/kg IP, AVERAGE n=3) was 58.9 L/kg. For the same compound, the AUC0-24 [10, 14] was 1.9671 µM·h and 2.1252 µM·h, the AUCINF [10, 14] was 2.1537 µM·h and 2.2985 µM·h and the AUCLAST [10, 14] was 1.9671 µM·h and 2.1252 µM·h. The Cl [10, 14] was 253.1 mL/min/kg and 277.9 mL/min/kg and 260.4 mL/min/kg, the Cmax [10, 14] was 557 nM and 623 nM and the MRT [10, 14] was 2.3 h. The Tmax [10, 14] was 1.0 h, the VD [10, 14] was 86.9 L/kg and 46.7 L/kg and 43.1 L/kg and the t1/2 [10, 14] was 4.0 hr and 1.9 hr (2×). The maximum concentration ([10]; 5 mg/kg single i.p. dose, plasma, fasted mice) was 306 ng/mL, the AUC(0-t) ([10]; mouse, plasma, ip, 5 mg/kg, AUC0-24, 5 mg/kg IP, AVERAGE n=3) was 1.9 µM·h and the AUC(0-t) ([10]; mouse, plasma, ip, 5 mg/kg, AUC0-24, 5 mg/kg IP, individual animals 1-3) was 1.62 µM·h. For the same compound, the AUC(0-inf) ([10]; mouse, plasma, ip, 5 mg/kg, 5 mg/kg IP, AVERAGE n=3) was 2.27 µM·h, the AUC(0-inf) ([10]; mouse, plasma, ip, 5 mg/kg, 5 mg/kg IP, individual animals 1-3) was 2.36 µM·h and the AUC(0-t) ([10]; mouse, plasma, ip, 5 mg/kg, AUCLAST, 5 mg/kg IP, AVERAGE n=3) was 1.9 µM·h. It also gave an AUC(0-t) ([10]; mouse, plasma, ip, 5 mg/kg, AUCLAST, 5 mg/kg IP, individual animals 1-3) of 1.62 µM·h, a Cmax ([10]; mouse, plasma, ip, 5 mg/kg, Cmax, 5 mg/kg IP, AVERAGE n=3) of 549 nM and a Cmax ([10]; mouse, plasma, ip, 5 mg/kg, Cmax, 5 mg/kg IP, individual animals 1-3) of 469 nM. For the same compound, the MRT ([10]; mouse, plasma, ip, 5 mg/kg, MRT, 5 mg/kg IP, AVERAGE n=3) was 2.4 h, the MRT ([10]; mouse, plasma, ip, 5 mg/kg, MRT, 5 mg/kg IP, individual animals 1-3) was 2.7 h and the Tmax ([10]; mouse, plasma, ip, 5 mg/kg, Tmax, 5 mg/kg IP, AVERAGE n=3) was 0.7 h. For the same compound, the Tmax ([10]; mouse, plasma, ip, 5 mg/kg, Tmax, 5 mg/kg IP, individual animals 1-3) was 0.5 h, the half-life ([10]; mouse, plasma, ip, 5 mg/kg, t1/2, 5 mg/kg IP, AVERAGE n=3) was 2.6 h and the Tmax ([10]; mouse, plasma, ip, 5 mg/kg, time of maximum concentration post dosing, 5 mg/kg single i.p. dose, average) was 0.67 h. For the same compound, the inhibition at 10 µM [11] was 19%, the inhibition at 10 µM [12] was 41% and the inhibition at 10 µM [13] was 28%.
